# According to paper PMC11154717, “Evaluation of Novel Spiro-pyrrolopyridazine Derivatives as Anticancer Compounds: In Vitro Selective Cytotoxicity, Induction of Apoptosis, EGFR Inhibitory Activity, and Molecular Docking Analysis” (ACS Omega, 2024):
# Tests used:
# Assay type in all cases: cell-based, human
# H69AR lung cancer cells = assay: XTT cell viability assay, H69AR; conditions: for IC50: XTT, 72 h
# Description: (§1) Human breast cancer (MCF-7), human lung cancer (H69AR), and human prostate cancer (PC-3) human nontumorigenic HEK-293 cells were obtained from the Health Protection Agency (UK) and Interlab Cell Line Collection (ICLC, Italy). Cells were maintained in RPMI medium (Sigma) containing 10% heat-inactivated fetal bovine serum, 1% penicillin, and 1% L-glutamine in a 37° humidified CO2 incubator.
# (§2) XTT (2,3-bis(2-methoxy-4-nitro-5-sulfophenyl)-2H-tetrazolium-5-carboxanilide) cell viability test was used to determine the cytotoxic activities of SPPs, which were dissolved in dimethyl sulfoxide (DMSO). Cells were seeded in 96-well plates at a density of 10^4/well and treated with increasing concentrations of SPP (1–250 μM) for 24, 48, and 72 h. After the incubation period, 100 μL of XTT was added to all experimental wells, and 96-well plates were incubated at 37 °C for 4 h. After the color change was observed, the absorbance values of the wells were recorded at 570 nm in the microplate reader (Tecan). The IC50 values for all synthesized compounds, representing the concentration needed to inhibit 50% of cancer cell proliferation, were determined using Biosoft CalcuSyn 2.1 software.[13] The following formula was used to calculate selectivity indexes (SIs), which represent the cytotoxic selectivity of SPPs against cancer cells and normal cells (HEK-293): […]
# [1] = tested on: nontumorigenic HEK-293 cells; assay: XTT cell viability assay, HEK-293
# Description: as §1, §2
# [2] = tested on: PC-3 prostate cancer cells; assay: XTT cell viability assay, PC-3; conditions: for IC50: XTT, 72 h
# Description: as §1, §2
# [3] = tested on: MCF-7 breast cancer cells; assay: XTT cell viability assay, MCF-7; conditions: for IC50: XTT, 72 h
# Description: as §1, §2
"IC50 (H69AR lung cancer cells; Homo sapiens, H69AR)",IC50 ([2]; Homo sapiens),"IC50 ([3]; Homo sapiens, MCF7)",Structure (SMILES),IC50 (H69AR lung cancer cells),IC50 ([1]; 72 h),IC50 [2],IC50 [3],"IC50 ([1]; Homo sapiens, HEK293, 72 h)",selectivity index (SI) H69AR (H69AR lung cancer cells; versus HEK-293),selectivity index (SI) PC-3 ([2]; versus HEK-293),selectivity index (SI) MCF-7 ([3]; versus HEK-293)
18.7 ± 1.4 µM,44.2 ± 2.8 µM,24.6 ± 0.3 µM,Cc1ccc(C2=NC3(CCCCC3)c3c(-c4ccccc4)nnc(-c4ccccc4)c32)cc1 [SPP2],,,,,37.7 ± 0.2 µM,,,
77.4 ± 1.7 µM,59.6 ± 1.4 µM,65.8 ± 1.4 µM,CC(C)(C)c1ccc(C2=NC3(CCCCC3)c3c(-c4ccc(F)cc4)nnc(-c4ccccc4)c32)cc1 [SPP18],,,,,58.5 ± 1.3 µM,,,
70.8 ± 1.3 µM,89.7 ± 2.4 µM,66.4 ± 1.2 µM,Brc1cccc(-c2nnc(-c3ccccc3)c3c2C2(CCCCC2)N=C3c2ccccc2)c1 [SPP13],,,,,52.7 ± 1.4 µM,,,
9.8 ± 0.7 µM,8.3 ± 0.6 µM,10.4 ± 1.5 µM,Cc1cccc(C2=NC3(CCCCC3)c3c(-c4ccccc4)nnc(-c4ccccc4)c32)c1 [SPP3],,,,,7.5 ± 1 µM,0.76,0.90,0.72
63.3 ± 1.4 µM,88.2 ± 3.5 µM,61.9 ± 2.6 µM,Cc1ccc(-c2nnc(-c3ccccc3)c3c2C2(CCCCC2)N=C3c2ccc(C(C)(C)C)cc2)cc1 [SPP17],,,,,74.6 ± 0.7 µM,,,
62.1 ± 1.2 µM,89.2 ± 2.5 µM,57.4 ± 2.8 µM,O=[N+]([O-])c1ccc(C2=NC3(CCCCC3)c3c(-c4ccccc4)nnc(-c4ccccc4)c32)cc1 [SPP9],,,,,47.5 ± 2.6 µM,,,
75.7 ± 3.5 µM,80.5 ± 2.3 µM,95.2 ± 2.4 µM,Cc1ccc(-c2nnc(-c3ccccc3)c3c2C2(CCCCC2)N=C3c2ccccc2)cc1 [SPP11],,,,,87.7 ± 1.6 µM,,,
19.2 ± 0.4 µM,24.2 ± 0.8 µM,12.6 ± 2.6 µM,Fc1ccc(-c2nnc(-c3ccccc3)c3c2C2(CCCCC2)N=C3c2ccccc2)cc1 [SPP12],,,,,40.8 ± 2.2 µM,,,
71.9 ± 1.8 µM,35.5 ± 0.7 µM,62.2 ± 3.5 µM,FC(F)(F)c1ccc(C2=NC3(CCCCC3)c3c(-c4ccccc4)nnc(-c4ccccc4)c32)cc1 [SPP8],,,,,38.2 ± 1.3 µM,,,
92 ± 3.2 µM,85.5 ± 1.2 µM,67.1 ± 0.2 µM,CC(C)(C)c1ccc(C2=NC3(CCCCC3)c3c(-c4ccccc4)nnc(-c4ccccc4)c32)cc1 [SPP4],,,,,55.3 ± 3.6 µM,,,
27.1 ± 0.8 µM,35.4 ± 1.6 µM,21.3 ± 0.4 µM,c1ccc(C2=NC3(CCCCC3)c3c(-c4ccccc4)nnc(-c4ccccc4)c32)cc1 [SPP1],,,,,16.5 ± 1.2 µM,,,
137 ± 1.6 µM,35.6 ± 0.4 µM,48.2 ± 1.4 µM,Clc1ccc(C2=NC3(CCCCC3)c3c(-c4ccccc4)nnc(-c4ccccc4)c32)cc1 [SPP6],,,,,77.8 ± 1.7 µM,,,
34.9 ± 2.1 µM,61 ± 2.2 µM,38.4 ± 0.7 µM,CC(C)(C)c1ccc(C2=NC3(CCCCC3)c3c(-c4cccc(Br)c4)nnc(-c4ccccc4)c32)cc1 [SPP19],,,,,33.4 ± 1.6 µM,,,

# The next lines start with the compound.
Structure (SMILES),"IC50 (H69AR lung cancer cells; Homo sapiens, H69AR)",IC50 ([2]; Homo sapiens),"IC50 ([3]; Homo sapiens, MCF7)",IC50 (H69AR lung cancer cells),IC50 ([1]; 72 h),IC50 [2],IC50 [3],"IC50 ([1]; Homo sapiens, HEK293, 72 h)",selectivity index (SI) H69AR (H69AR lung cancer cells; versus HEK-293),selectivity index (SI) PC-3 ([2]; versus HEK-293),selectivity index (SI) MCF-7 ([3]; versus HEK-293)
"N.N.[Cl][Pt][Cl] [cisplatin, reference compound]",,,,18.2 ± 0.8 µM,16.4 ± 0.4 µM,14.9 ± 4.1 µM,16.8 ± 2.4 µM,,,,
Cc1ccc(-c2nnc(-c3ccccc3)c3c2C2(CCCCC2)N=C3c2ccc(C(F)(F)F)cc2)cc1 [SPP21],21.8 ± 0.6 µM,42.7 ± 1.6 µM,54.7 ± 2.9 µM,,,,,47.1 ± 0.4 µM,,,
"C#Cc1cccc(Nc2ncnc3cc(OCCOC)c(OCCOC)cc23)c1 [erlotinib, reference compound]",21.5 ± 1.8 µM,18.9 ± 3.2 µM,19.4 ± 2 µM,,,,,14.7 ± 2.8 µM,,,
Clc1ccc(C2=NC3(CCCCC3)c3c(-c4ccccc4)nnc(-c4ccccc4)c32)cc1Cl [SPP7],72.2 ± 3.4 µM,21.1 ± 2.1 µM,69.2 ± 1.2 µM,,,,,55.8 ± 0.6 µM,,,
Cc1cccc(C2=NC3(CCCCC3)c3c(-c4ccc(F)cc4)nnc(-c4ccccc4)c32)c1 [SPP16],63.9 ± 2.8 µM,76.3 ± 0.2 µM,58.3 ± 0.4 µM,,,,,64.4 ± 2.3 µM,,,
Cc1ccc(-c2nnc(-c3ccccc3)c3c2C2(CCCCC2)N=C3c2ccsc2)cc1 [SPP14],55.3 ± 1.6 µM,61.4 ± 0.5 µM,41.5 ± 0.8 µM,,,,,12.4 ± 0.2 µM,,,
Clc1ccc(C2=NC3(CCCCC3)c3c(-c4cccc(Br)c4)nnc(-c4ccccc4)c32)cc1 [SPP20],140 ± 2.4 µM,24.2 ± 0.8 µM,47.6 ± 2 µM,,,,,18.3 ± 2.1 µM,,,
Cc1ccc(-c2nnc(-c3ccccc3)c3c2C2(CCCCC2)N=C3c2cccc(C)c2)cc1 [SPP15],35.2 ± 3.2 µM,2.8 ± 0.4 µM,29.7 ± 2.2 µM,,,,,24.1 ± 1.8 µM,,,
COc1ccccc1C1=NC2(CCCCC2)c2c(-c3ccccc3)nnc(-c3ccccc3)c21 [SPP5],62.7 ± 0.7 µM,70.6 ± 2.4 µM,40.9 ± 1.8 µM,,,,,45.4 ± 2 µM,,,
